Assay results as given in patent US6689883B1, “Substituted pyridines and pyridazines with angiogenesis inhibiting activity” (Bayer Pharmaceuticals Corporation, priority 1999, dated 2004).
pIC50: −log10 of the molar value.

Assays:
[1] = molecular target: T1, full length KDR receptor in NIH3T3 cells (Homo sapiens, UniProt P35968); test: Cell Mechanistic Assay-Inhibition of 3T3 KDR Phosphorylation; type: cell-based; conditions: NIH3T3 cells expressing KDR, VEGF 30 ng/ml stimulation
T1 construct: NIH3T3 cells expressing the full length KDR receptor were grown in DMEM; expressed in transfected cells; host or cells: NIH3T3 cells (G418 selection)
T1 sequence (P35968 20-1356): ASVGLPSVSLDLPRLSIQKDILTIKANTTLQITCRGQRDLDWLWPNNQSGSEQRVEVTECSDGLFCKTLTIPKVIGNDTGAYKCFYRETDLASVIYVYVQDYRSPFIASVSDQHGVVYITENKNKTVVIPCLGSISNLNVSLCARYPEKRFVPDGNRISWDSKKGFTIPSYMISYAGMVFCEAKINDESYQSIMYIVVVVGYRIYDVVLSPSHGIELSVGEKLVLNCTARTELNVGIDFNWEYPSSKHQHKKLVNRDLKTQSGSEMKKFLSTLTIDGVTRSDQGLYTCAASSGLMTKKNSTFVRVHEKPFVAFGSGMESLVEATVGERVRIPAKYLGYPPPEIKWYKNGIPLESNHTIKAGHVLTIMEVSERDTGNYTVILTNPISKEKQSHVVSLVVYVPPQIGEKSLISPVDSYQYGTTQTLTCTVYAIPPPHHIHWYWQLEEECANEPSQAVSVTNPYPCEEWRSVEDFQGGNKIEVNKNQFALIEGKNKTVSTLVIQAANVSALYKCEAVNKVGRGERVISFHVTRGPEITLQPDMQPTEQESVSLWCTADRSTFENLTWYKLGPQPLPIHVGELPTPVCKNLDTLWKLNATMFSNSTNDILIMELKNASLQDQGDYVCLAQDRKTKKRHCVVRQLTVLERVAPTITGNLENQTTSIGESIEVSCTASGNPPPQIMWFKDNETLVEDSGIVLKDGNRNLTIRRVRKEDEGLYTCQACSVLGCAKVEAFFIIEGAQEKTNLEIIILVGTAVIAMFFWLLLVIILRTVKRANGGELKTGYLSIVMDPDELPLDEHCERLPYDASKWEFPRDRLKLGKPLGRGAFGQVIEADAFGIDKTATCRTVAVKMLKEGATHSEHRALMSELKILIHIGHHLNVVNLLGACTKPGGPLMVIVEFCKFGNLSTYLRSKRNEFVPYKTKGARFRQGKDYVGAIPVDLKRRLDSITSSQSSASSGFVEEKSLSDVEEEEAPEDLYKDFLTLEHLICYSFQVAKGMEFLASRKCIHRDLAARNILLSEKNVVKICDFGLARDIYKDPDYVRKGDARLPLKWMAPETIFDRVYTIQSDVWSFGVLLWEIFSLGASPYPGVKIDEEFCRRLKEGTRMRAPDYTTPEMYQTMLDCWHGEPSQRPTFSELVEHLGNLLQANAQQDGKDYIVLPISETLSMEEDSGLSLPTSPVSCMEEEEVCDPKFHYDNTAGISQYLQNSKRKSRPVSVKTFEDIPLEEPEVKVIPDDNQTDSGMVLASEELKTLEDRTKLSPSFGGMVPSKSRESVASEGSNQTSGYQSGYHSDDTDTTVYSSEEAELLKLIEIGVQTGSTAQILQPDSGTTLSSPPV
Experimental: NIH3T3 cells expressing the full length KDR receptor were grown in DMEM (Life Technologies, Inc., Grand Island, N.Y.) supplemented with 10% newborn calf serum, low glucose, 25 mM/L sodium pyruvate, pyridoxine hydrochloride and 0.2 mg/ml of G418 (Life Technologies Inc., Grand Island, N.Y.). The cells were maintained in collagen I-coated T75 flasks (Becton Dickinson Labware, Bedford, Mass.) in a humidified 5% CO2 atmosphere at 37° C.
Fifteen thousand cells were plated into each well of a collagen I-coated 96-well plate in the DMEM growth medium. Six hours later, the cells were washed and the medium was replaced with DMEM without serum. After overnight culture to quiesce the cells, the medium was replaced by Dulbecco's phosphate-buffered saline (Life Technologies Inc., Grand Island, N.Y.) with 0.1% bovine albumin (Sigma Chemical Co., St Louis, Mo.). After adding various concentrations (0-300 nM) of test compounds to the cells in 1% final concentration of DMSO, the cells were incubated at room temperature for 30 minutes. The cells were then treated with VEGF (30 ng/ml) for 10 minutes at room temperature. Following VEGF stimulation, the buffer was removed and the cells were lysed by addition of 150 μl of extraction buffer (50 mM Tris, pH 7.8, supplemented with 10% glycerol, 50 mM BGP, 2 mM EDTA, 10 mM NaF, 0.5 mM NaVO4, and 0.3% TX-100) at 4° C. for 30 minutes.
To assess receptor phosphorylation, 100 microliters of each cell lysate was added to the wells of an ELISA plate precoated with 300 ng of antibody C20 (Santa Cruz Biotechnology, Inc., Santa Cruz, Calif.). Following a 60-minute incubation, the plate was washed and bound KDR was probed for phosphotyrosine using an anti-phosphotyrosine mAb clone 4G10 (Upstate Biotechnology, Lake Placid, N.Y.). The plate was washed and wells were incubated with anti-mouse IgG/HRP conjugate (Amersham International plc, Buckinghamshire, England) for 60 minutes. Wells were washed and phosphotyrosine was quantitated by addition of 100 μl per well of 3,3′,5,5′tetramethylbenzidine (Kirkegaard and Perry, TMB Microwell 1 Component peroxidase substrate) solution. Color development was arrested by the addition of 100 μl 1% HCl based stop solution (Kirkegaard and Perry, TMB 1 Component Stop Solution).
Optical densities (OD) were determined spectrophotometrically at 450 nm in a 96-well plate reader (SpectraMax 250, Molecular Devices). Background (no VEGF added) OD values were subtracted from all ODs and percent inhibition was calculated according to the equation: [formula]
IC50s were determined on some of the exemplary materials with a least squares analysis program using compound concentration versus percent inhibition. Compounds that have IC50≦20 nM in this assay include those of Examples 2, 6, 10, 11, 14, 23, 96, 101, 102, 103, 104, 105. Compounds that have IC50 values between 20 nM and 50 nM include those of examples 1, 4, 8, 9, 12, 13, 17, 24, 93, 98. Compounds that have IC50 values between 50 nM and 400 nM include those of examples 97, 99, and 100.

[2] = molecular target: T2, cytosolic kinase domain of KDR kinase (Homo sapiens, UniProt P35968); test: KDR Assay (ELISA, poly(Glu4;Tyr1) phosphorylation); type: biochemical; conditions: 3.3 μM ATP, 60 minutes at room temperature
T2 construct: The cytosolic kinase domain of KDR kinase was expressed as a 6His fusion protein in Sf9 insect cells; 6His; made in house; host or cells: Sf9 insect cells
T2 sequence (P35968 834-1162 limits assumed): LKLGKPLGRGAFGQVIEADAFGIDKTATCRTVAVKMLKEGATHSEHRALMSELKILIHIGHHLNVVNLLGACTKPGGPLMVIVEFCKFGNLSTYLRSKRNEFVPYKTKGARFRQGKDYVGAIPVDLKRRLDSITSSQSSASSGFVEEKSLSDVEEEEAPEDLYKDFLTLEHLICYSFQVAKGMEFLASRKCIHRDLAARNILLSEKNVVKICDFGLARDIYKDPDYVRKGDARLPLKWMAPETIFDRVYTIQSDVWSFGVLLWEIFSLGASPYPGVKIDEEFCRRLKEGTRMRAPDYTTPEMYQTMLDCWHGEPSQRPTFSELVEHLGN
Experimental: The cytosolic kinase domain of KDR kinase was expressed as a 6His fusion protein in Sf9 insect cells. The KDR kinase domain fusion protein was purified over a Ni++ chelating column. Ninety-six well ELISA plates were coated with 5 μg poly(Glu4;Tyr1) (Sigma Chemical Co., St Louis, Mo.) in 100 μl HEPES buffer (20 mM HEPES, pH 7.5, 150 mM NaCl, 0.02% Thimerosal) at 4° overnight. Before use, the plate was washed with HEPES, NaCl buffer and the plates were blocked with 1% BSA, 0.1% Tween 20 in HEPES, NaCl buffer.
Test compounds were serially diluted in 100% DMSO from 4 mM to 0.12 μM in half-log dilutions. These dilutions were further diluted twenty fold in H2O to obtain compound solutions in 5% DMSO. Following loading of the assay plate with 85 μl of assay buffer (20 mM HEPES, pH 7.5, 100 mM KCl, 10 mM MgCl2, 3 mM MnCl2, 0.05% glycerol, 0.005% Triton X-100, 1 mM-mercaptoethanol, with or without 3.3 μM ATP), 5 μl of the diluted compounds were added to a final assay volume of 100 μl. Final concentrations were between 10 μM, and 0.3 nM in 0.25% DMSO. The assay was initiated by the addition of 10 μl (30 ng) of KDR kinase domain.
The assay was incubated with test compound or vehicle alone with gentle agitation at room temperature for 60 minutes. The wells were washed and phosphotyrosines (PY) were probed with an anti-phosphotyrosine (PY), mAb clone 4G10 (Upstate Biotechnology, Lake Placid, N.Y.). PY/anti-PY complexes were detected with an anti-mouse IgG/HRP conjugate (Amersham International plc, Buckinghamshire, England). Phosphotyrosine was quantitated by incubating with 100 μl 3,3′,5,5′tetramethylbenzidine solution (Kirkegaard and Perry, TMB Microwell 1 Component peroxidase substrate). Color development was arrested by the addition of 100 μl 1% HCl-based stop solution (Kirkegaard and Perry, TMB 1 Component Stop Solution).
Optical densities were determined spectrophotometrically at 450 nm in a 96-well plate reader, SpectraMax 250 (Molecular Devices). Background (no ATP in assay) OD values were subtracted from all ODs and the percent inhibition was calculated according to the equation: [formula]

| SMILES | pIC50 [1] | pIC50 [2] | melting point |
| --- | --- | --- | --- |
| c1ccc2c(Nc3ccc4c(c3)CCC4)ncc(Cc3ccncc3)c2c1 [Example 6, 1-(indan-5-ylamino)-4-(4-pyridylmethyl)-isoquinoline] | ≥ 7.70 | ≥ 7.00 | – |
| Clc1ccc(Nc2nnc(OCc3ccncc3)c3sccc23)cc1 [Example 8, 4-(4-chlorophenylamino)-7-(4-pyridylmethoxy)thieno-[2,3-d]pyridazine] | – | ≥ 7.00 | 203 to 205 °C (dec.) |
| Clc1ccc(Nc2nnc(OCc3ccncc3)c3occc23)cc1 [Example 9, 4-(4-chlorophenylamino)-7-(4-pyridylmethoxy)furo[2,3-d]pyridazine] | 7.30 to 7.70 | ≥ 7.00 | – |
| NC(=O)c1cc(COc2nnc(Nc3ccc(Cl)cc3)c3ccsc23)ccn1 [Example 10, 4-(4-chlorophenylamino)-7-(2-aminocarbonyl-4-pyridylmethoxy)thieno-[2,3-d]pyridazine] | ≥ 7.70 | ≥ 7.00 | 233 °C |
| CNC(=O)c1cc(COc2nnc(Nc3ccc(Cl)cc3)c3ccsc23)ccn1 [Example 11, 4-(4-chlorophenylamino)-7-(2-methylaminocarbonyl-4-pyridylmethoxy)thieno-[2,3-d]pyridazine] | ≥ 7.70 | ≥ 7.00 | – |
| CNC(=O)c1cc(COc2nnc(Nc3ccc(Cl)cc3)c3ccoc23)ccn1 [Example 14, 4-(4-chlorophenylamino)-7-(2-methylaminocarbonyl-4-pyridylmethoxy)furo-[2,3-d]pyridazine] | ≥ 7.70 | ≥ 7.00 | – |
| Brc1cccc(Nc2nnc(Nc3ccc4ncsc4c3)c3ccccc23)c1 [Example 101] | ≥ 7.70 | ≥ 7.00 | – |

Second part, the compound after the results:

| pIC50 [1] | pIC50 [2] | melting point | SMILES |
| --- | --- | --- | --- |
| ≥ 7.70 | ≥ 7.00 | – | c1ccc2c(Nc3ccc4c(c3)CCC4)ncc(Sc3ccncc3)c2c1 [Example 2, 1-(indan-5-ylamino)-4-(4-pyridylthio)isoquinoline] |
| ≥ 7.70 | – | – | Clc1ccc(Nc2nnc(Nc3ccc4ncsc4c3)c3sccc23)cc1 [Example 23] |
| ≥ 7.70 | ≥ 7.00 | – | Clc1ccc(Nc2nnc(Nc3ccc4nn[nH]c4c3)c3ccccc23)cc1 [Example 96] |
| ≥ 7.70 | ≥ 7.00 | – | CC(C)c1ccc(Nc2nnc(Nc3ccc4ncsc4c3)c3ccccc23)cc1 [Example 102] |
| ≥ 7.70 | ≥ 7.00 | – | COc1cccc(Nc2nnc(Nc3ccc4ncsc4c3)c3ccccc23)c1 [Example 103] |
| ≥ 7.70 | ≥ 7.00 | – | Clc1ccc(Nc2nnc(Nc3ccc4ncsc4c3)c3ccccc23)cc1 [Example 105] |
